Experimental findings from ChEMBL document CHEMBL1140392, “Cyclohexenyl- and dehydropiperidinyl-alkynyl pyridines as potent metabotropic glutamate subtype 5 (mGlu5) receptor antagonists” (Bioorg Med Chem Lett, 2005) are described below.

What all share (type): ADME, organism-based
The nature of data set [1]: Clearance upon i.v. administration at the dose of 2 mg/kg in rat. As to conditions: in vivo, iv. Details: dose 2 mg/kg, route intravenous.
Data set [2] in a line: Half life upon i.v. administration at the dose of 2 mg/kg in rat. As to conditions: in vivo, iv. On the set-up: dose 2 mg/kg, route intravenous.
A short description of data set [3]: Volume distribution upon i.v. administration at the dose of 2 mg/kg in rat. On the set-up: dose 2 mg/kg, route intravenous. As to conditions: in vivo, iv.
Data set [4] in a line: Peak plasma concentration in rats when administered 10 mg/kg orally. Details: dose 10 mg/kg, route oral. The following applies: rat, po.
Data set [5] is described as follows: Bioavailability in rats when administered 10 mg/kg orally. As to conditions: rat, in vivo, po, read-out: Bioavailabiility.

Structures are written as SMILES.

The term clearance denotes the volume of plasma or blood freed of the substance per unit of time. High values mean a high capacity for elimination, low ones a low capacity for elimination. As usually defined, the half-life is how long it takes for the measured level to halve. Low readings indicate rapid decline, high ones slow decline. In general, Vd refers to the apparent volume that relates the amount in the body to the concentration in plasma or blood. By Cmax is commonly meant the maximum level reached in the sampled fluid or tissue.

`C(#Cc1ccccn1)C1=CC(Oc2ccncc2)CCC1` (stereo not drawn) yielded a clearance in data set [1] of 41 mL/min/kg. The molecule also gave a half-life in data set [2] of 0.8 h. In addition, the volume of distribution (Vd) in data set [3] (read-out: Vd) was 1.2 L/kg.

In turn, `C(#Cc1ccccn1)C1=CCC(Nc2cccnc2)CC1` (stereo not drawn) displayed a clearance in data set [1] of 34 mL/min/kg. In data set [2], this molecule had a half-life of 0.5 h. Besides, the Vd in data set [3] (read-out: Vd) was determined as 1.4 L/kg.

In turn, `Cc1ccc(S(=O)(=O)N2CC=C(C#Cc3ccccn3)CC2)cc1` had a Cl in data set [1] of 29 mL/min/kg. In data set [2], this molecule showed a T1/2 of 1.5 h. Besides, in data set [3], the volume of distribution (Vd) was 14.7 L/kg.

`C(#Cc1ccccn1)C1=CCCCC1` registered a clearance in data set [1] of 45 mL/min/kg. The molecule also gave a half-life in data set [2] of 3.9 h. Further, in data set [3] (read-out: Vd), the Vd amounted to 9.1 L/kg.

In data set [1], `O=S(=O)(c1ccc(Br)cc1)N1CC=C(C#Cc2ccccn2)CC1` displayed a clearance of 64 mL/min/kg. In data set [4], this molecule gave a Cmax of 20 nM. This molecule also gave a half-life in data set [2] of 1.1 h. For the same molecule, the bioavailability in data set [5] stood at 10%. Further, the Vd in data set [3] (read-out: Vd) was 3.98 L/kg.

As for `Clc1cncc(OC2C=C(C#Cc3ccccn3)CCC2)c1` (stereo not drawn), the clearance in data set [1] came out at 32 mL/min/kg. The molecule further gave a half-life in data set [2] of 4.8 h. For the same molecule, in data set [3] (read-out: Vd), the Vd worked out at 7.2 L/kg.

On to `C(#Cc1ccccn1)C1=CC(Oc2cccnc2)CCC1` (stereo not drawn), for which the clearance in data set [1] is 94 mL/min/kg. The same molecule had a half-life in data set [2] of 0.3 h. For the same molecule, the volume of distribution (Vd) in data set [3] (read-out: Vd) was 2.2 L/kg.
